Data published in ChEMBL document CHEMBL1649182, “Binding of faropenem and other beta-lactam agents to penicillin-binding proteins of pneumococci with various beta-lactam susceptibilities” (Antimicrob Agents Chemother, 2009).
Values after ≈ are worked out from the molar mass of the structure shown.

Key:
Streptococcus pneumoniae [1] = experiment: Antimicrobial activity against penicillin-resistant Streptococcus pneumoniae 3413 by CLSI method; assay type: functional
Streptococcus pneumoniae [2] = experiment: Antimicrobial activity against Streptococcus pneumoniae 1394 by CLSI method; assay type: functional
Streptococcus pneumoniae [3] = experiment: Antimicrobial activity against penicillin-intermediate Streptococcus pneumoniae 3676 by CLSI method; assay type: functional
Streptococcus pneumoniae [4] = experiment: Antimicrobial activity against penicillin-intermediate Streptococcus pneumoniae 3243 by CLSI method; assay type: functional
[5] = target: T1, Penicillin-binding protein 1A (Streptococcus pneumoniae serotype 4 (strain ATCC BAA-334 / TIGR4), UniProt Q04707); experiment: Displacement of Biocillin FL from Streptococcus pneumoniae 3665 PBP1A
T1 sequence (Q04707 whole entry): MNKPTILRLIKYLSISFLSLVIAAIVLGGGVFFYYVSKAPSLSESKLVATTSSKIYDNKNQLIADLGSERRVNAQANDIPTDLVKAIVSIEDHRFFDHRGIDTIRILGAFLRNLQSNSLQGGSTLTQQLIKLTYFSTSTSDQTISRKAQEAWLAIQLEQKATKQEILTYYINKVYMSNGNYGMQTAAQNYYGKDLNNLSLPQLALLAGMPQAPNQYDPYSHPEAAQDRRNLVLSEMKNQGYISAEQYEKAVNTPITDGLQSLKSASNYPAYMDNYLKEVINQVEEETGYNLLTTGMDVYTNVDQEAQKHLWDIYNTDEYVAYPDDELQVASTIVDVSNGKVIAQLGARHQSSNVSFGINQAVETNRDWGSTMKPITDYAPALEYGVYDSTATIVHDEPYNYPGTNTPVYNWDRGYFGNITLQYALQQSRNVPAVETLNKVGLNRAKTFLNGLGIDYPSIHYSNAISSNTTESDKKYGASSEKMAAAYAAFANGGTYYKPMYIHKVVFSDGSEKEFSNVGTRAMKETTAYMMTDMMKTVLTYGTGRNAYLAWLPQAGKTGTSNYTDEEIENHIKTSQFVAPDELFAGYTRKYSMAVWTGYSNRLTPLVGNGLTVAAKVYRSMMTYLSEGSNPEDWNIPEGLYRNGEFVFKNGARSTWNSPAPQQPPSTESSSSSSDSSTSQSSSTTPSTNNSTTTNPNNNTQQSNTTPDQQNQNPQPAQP

[6] = target: T1, Penicillin-binding protein 1A; experiment: Displacement of Biocillin FL from Streptococcus pneumoniae 1076 PBP1A
[7] = target: T1, Penicillin-binding protein 1A; experiment: Displacement of Biocillin FL from Streptococcus pneumoniae 1077 PBP1A
[8] = Displacement of Biocillin FL from Streptococcus pneumoniae 24 PBP1B
[9] = Displacement of Biocillin FL from Streptococcus pneumoniae 2527 PBP1B
[10] = Displacement of Biocillin FL from Streptococcus pneumoniae 3676 PBP1B
[11] = Displacement of Biocillin FL from Streptococcus pneumoniae 3243 PBP1B
[12] = target: T2, Penicillin-binding protein 2x (Streptococcus pneumoniae serotype 4 (strain ATCC BAA-334 / TIGR4), UniProt P14677); experiment: Displacement of Biocillin FL from Streptococcus pneumoniae 2527 PBP2X
T2 sequence (P14677 whole entry): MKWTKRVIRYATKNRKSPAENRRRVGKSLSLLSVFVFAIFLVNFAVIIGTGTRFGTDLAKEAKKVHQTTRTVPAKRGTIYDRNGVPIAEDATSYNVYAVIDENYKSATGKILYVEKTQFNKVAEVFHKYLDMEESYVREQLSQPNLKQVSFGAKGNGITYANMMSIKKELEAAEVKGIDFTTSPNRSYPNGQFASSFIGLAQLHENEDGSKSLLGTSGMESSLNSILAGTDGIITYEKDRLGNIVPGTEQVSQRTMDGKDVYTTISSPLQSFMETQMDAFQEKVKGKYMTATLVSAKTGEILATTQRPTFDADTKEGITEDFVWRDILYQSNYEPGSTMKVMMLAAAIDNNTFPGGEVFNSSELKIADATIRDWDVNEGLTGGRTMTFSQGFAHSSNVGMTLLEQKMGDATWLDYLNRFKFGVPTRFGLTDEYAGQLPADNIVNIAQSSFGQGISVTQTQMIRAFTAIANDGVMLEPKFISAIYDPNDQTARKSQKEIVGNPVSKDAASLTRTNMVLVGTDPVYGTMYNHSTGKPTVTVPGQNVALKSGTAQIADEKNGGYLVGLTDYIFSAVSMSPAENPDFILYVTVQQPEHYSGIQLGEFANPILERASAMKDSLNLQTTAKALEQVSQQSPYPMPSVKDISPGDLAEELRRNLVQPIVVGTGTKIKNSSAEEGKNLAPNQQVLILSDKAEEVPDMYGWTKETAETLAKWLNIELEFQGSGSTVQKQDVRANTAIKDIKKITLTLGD

[13] = target: T2, Penicillin-binding protein 2x; experiment: Displacement of Biocillin FL from Streptococcus pneumoniae 3676 PBP2X
[14] = target: T2, Penicillin-binding protein 2x; experiment: Displacement of Biocillin FL from Streptococcus pneumoniae 3243 PBP2X
[15] = target: T2, Penicillin-binding protein 2x; experiment: Displacement of Biocillin FL from Streptococcus pneumoniae 3665 PBP2X
[16] = target: T2, Penicillin-binding protein 2x; experiment: Displacement of Biocillin FL from Streptococcus pneumoniae 1077 PBP2X
[17] = Displacement of Biocillin FL from Streptococcus pneumoniae 24 PBP2A
[18] = Displacement of Biocillin FL from Streptococcus pneumoniae 2527 PBP2A
[19] = target: T3, Penicillin-binding protein 2B (Streptococcus pneumoniae serotype 4 (strain ATCC BAA-334 / TIGR4), UniProt P0A3M5); experiment: Displacement of Biocillin FL from Streptococcus pneumoniae 3676 PBP2B
T3 sequence (P0A3M5 whole entry): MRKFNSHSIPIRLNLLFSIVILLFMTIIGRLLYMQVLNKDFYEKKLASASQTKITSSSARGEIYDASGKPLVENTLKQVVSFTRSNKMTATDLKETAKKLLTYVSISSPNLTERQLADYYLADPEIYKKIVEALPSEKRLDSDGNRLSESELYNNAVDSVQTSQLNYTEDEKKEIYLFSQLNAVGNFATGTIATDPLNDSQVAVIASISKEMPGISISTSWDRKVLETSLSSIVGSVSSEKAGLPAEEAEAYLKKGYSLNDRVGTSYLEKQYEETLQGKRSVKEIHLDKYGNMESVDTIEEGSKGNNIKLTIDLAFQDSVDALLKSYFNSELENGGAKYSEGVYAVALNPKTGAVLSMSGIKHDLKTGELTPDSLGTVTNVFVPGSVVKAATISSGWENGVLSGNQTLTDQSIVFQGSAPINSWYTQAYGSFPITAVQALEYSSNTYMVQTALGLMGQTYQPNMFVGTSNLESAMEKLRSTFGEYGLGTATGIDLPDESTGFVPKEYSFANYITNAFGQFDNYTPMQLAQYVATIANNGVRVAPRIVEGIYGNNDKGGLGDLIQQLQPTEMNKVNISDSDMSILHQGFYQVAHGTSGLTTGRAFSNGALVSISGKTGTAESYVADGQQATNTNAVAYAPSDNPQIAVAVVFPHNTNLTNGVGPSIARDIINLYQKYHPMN

[20] = target: T3, Penicillin-binding protein 2B; experiment: Displacement of Biocillin FL from Streptococcus pneumoniae 3009 PBP2B
[21] = Displacement of Biocillin FL from Streptococcus pneumoniae 2527 PBP3

| SMILES | MIC (Streptococcus pneumoniae [1]) [µg/mL] | MIC (Streptococcus pneumoniae [2]) [µg/mL] | MIC (Streptococcus pneumoniae [3]) [µg/mL] | MIC (Streptococcus pneumoniae [4]) [µg/mL] | IC50 [5] [nM] | IC50 [6] [nM] | IC50 [7] [nM] | IC50 [8] [µg/mL] | IC50 [9] [µg/mL] | IC50 [10] [µg/mL] | IC50 [11] [µg/mL] | IC50 [12] [nM] | IC50 [13] [nM] | IC50 [14] [nM] | IC50 [15] [nM] | IC50 [16] [nM] | IC50 [17] [µg/mL] | IC50 [18] [µg/mL] | IC50 [19] [nM] | IC50 [20] [nM] | also measured |
| --- | --- | --- | --- | --- | --- | --- | --- | --- | --- | --- | --- | --- | --- | --- | --- | --- | --- | --- | --- | --- | --- |
| C[C@@H](O)[C@H]1C(=O)N2C(C(=O)O)=C(SCCNC=N)C[C@H]12 [IMIPENEM ANHYDROUS] | 0.125 (≈ 0.418 µM) | 0.25 (≈ 0.835 µM) | 0.016 (≈ 0.0534 µM) | 0.016 (≈ 0.0534 µM) | 965 | 301 | 174 | 0.71 (≈ 2.37 µM) | 0.023 (≈ 0.0768 µM) | 0.182 (≈ 0.608 µM) | 0.108 (≈ 0.361 µM) | 60.1 | 130 | 635 | 1980 | 598 | 0.352 (≈ 1.18 µM) | 0.059 (≈ 0.197 µM) | 1320 | 154 | IC50 [21]: 0.034 µg/mL (≈ 0.114 µM) |
| CC1(C)S[C@@H]2[C@H](NC(=O)[C@H](N)c3ccc(O)cc3)C(=O)N2[C@H]1C(=O)O [AMOXICILLIN] | 2 (≈ 5.47 µM) | 8 (≈ 21.9 µM) | 0.03 (≈ 0.0821 µM) | 0.06 (≈ 0.164 µM) | 183 | 120 | 46.5 | 1.103 (≈ 3.02 µM) | 0.029 (≈ 0.0794 µM) | 0.116 (≈ 0.317 µM) | 0.165 (≈ 0.452 µM) | 10.9 | 118 | 49.3 | 257 | 60.2 | 0.077 (≈ 0.211 µM) | 0.051 (≈ 0.14 µM) | 394 | 137 | IC50 [21]: 0.022 µg/mL (≈ 0.0602 µM) |
| C[C@@H](O)[C@H]1C(=O)N2C(C(=O)O)=C([C@H]3CCCO3)S[C@H]12 [FAROPENEM] | 1 (≈ 3.5 µM) | 0.03 (≈ 0.105 µM) | 0.125 (≈ 0.438 µM) | 0.125 (≈ 0.438 µM) | 105 | 52.6 | 52.6 | 0.06 (≈ 0.21 µM) | 0.002 (≈ 0.00701 µM) | 0.005 (≈ 0.0175 µM) | 0.001 (≈ 0.0035 µM) | 116 | 59.6 | 137 | 606 | 687 | 0.023 (≈ 0.0806 µM) | 0.025 (≈ 0.0876 µM) | 151 | 24.5 | IC50 [21]: 0.007 µg/mL (≈ 0.0245 µM) |
| CC1(C)S[C@@H]2[C@H](NC(=O)Cc3ccccc3)C(=O)N2[C@H]1C(=O)O [PENICILLIN G] | 4 (≈ 12 µM) | 4 (≈ 12 µM) | 0.25 (≈ 0.748 µM) | 0.25 (≈ 0.748 µM) | 92.7 | 47.8 | 26.9 | 0.248 (≈ 0.742 µM) | 0.009 (≈ 0.0269 µM) | 0.021 (≈ 0.0628 µM) | 0.01 (≈ 0.0299 µM) | 26.9 | 83.7 | 20.9 | 123 | 23.9 | 0.133 (≈ 0.398 µM) | 0.023 (≈ 0.0688 µM) | 789 | 20.9 | IC50 [21]: 0.014 µg/mL (≈ 0.0419 µM) |
| CO/N=C(\C(=O)N[C@@H]1C(=O)N2C(C(=O)O)=C(COC(N)=O)CS[C@H]12)c1ccco1 [CEFUROXIME] | 4 (≈ 9.43 µM) | 16 (≈ 37.7 µM) | 0.125 (≈ 0.295 µM) | 0.25 (≈ 0.589 µM) | 4.71 | 9.43 | 386 | 0.923 (≈ 2.17 µM) | 0.028 (≈ 0.066 µM) | 0.038 (≈ 0.0895 µM) | 0.075 (≈ 0.177 µM) | 7.07 | 47.1 | 33 | 33 | 14.1 | 0.016 (≈ 0.0377 µM) | 0.01 (≈ 0.0236 µM) | 1110 | 3900 | IC50 [21]: 0.038 µg/mL (≈ 0.0895 µM) |
